# Measured values taken from patent US20250339409A1, “USES OF PAN BET INHIBITORS” (VYNE THERAPEUTICS INC., priority 2021, published 2025).
# Columns and labels:
# [1] = tested on: melanin in basal layers of RHE; test: RHE vitiligo model: melanin content and localization by Fontana Masson staining; format: cell-based, human
# Description: Melanin deposition on 6 μm paraffin sections of each epidermis (n=3) are highlighted through staining with Fontana Masson reagents (VWR—VWRK641295, VWRK641311; Klinipath—641215). Slides are mounted with specific medium and examined with a Nikon Eclipse (Ni-E) photomicroscope coupled to a numerical camera (DS-Ri2)
# For the melanin quantification, three images of each epidermis are taken and analysed using the NIS-Element AR software (Nikon). For the quantification of melanin, a region of interest (ROI) is first defined and measured in the epidermis. This region includes only the basal layers. Then, two measures are taken by the software in this ROI. The first one represents the labelled surface on the ROI, and thus the area occupied by the melanin in the ROI. The second one corresponds to the global intensity of the staining in the ROI, reflecting a lighter or darker melanin. The relative quantification of melanin in the ROI is then performed by multiplying these two measures. To normalize the results to a given surface, this value was then divided by the surface of the ROI.
# Formulations containing four doses of BETi1 the BETi1 vehicle (placebo), were evaluated in RHE TNF-α/IFN-γ vitiligo model as described Experimental section Method F and representative images of […] epidermis sections are shown in FIG. 6A-G. The images according to this method are consistent with the images with H/E stained epidermis sections and shown in FIG. 4A-H.
# Results of the quantification of melanin in basal layers of epidermis stimulated or not with the cytokine cocktail to induce melanocytorhagy and treated with the test items are shown in FIG. 6H. The results are expressed with normalization to the surface of region of interest (ROI) corresponding to the 2-3 basal layers of the RHEs. […] As for TRP-1 staining, the effects of the ruxolitinib cream at 1% on melanin content could not be assessed given that the sections have detached from the glass slides during the staining process (probably without being bound by any theory may be due to the bad structure of the epidermis).
# [2] = tested on: back skin of healthy mice; test: Tolerance assessment of BETi1 0.01% and 1.0% in healthy (non-induced) mice; format: in vivo; settings: for Modified PASI Mean score values / PASI Mean score values: female, Balb/c
# Experimental: Thirty-six (36) female Balb/c mice are weighed and randomly divided into 9 groups (n=4) according to body weight on D1. For mice of native group 1 and tolerance groups 8 and 9, no induction of psoriasis is performed between D1 and D13. Psoriasis is induced in groups 2 to 7 by once daily topical application for 13 days (from day 1 to day 13) of 65 mg of Aldara™ cream (5.0% imiquimod) onto the shaved and epilated back of mice. Before the first treatment, a second randomization of mice of the 6 imiquimod-induced psoriasis groups is performed according to the severity of psoriasis (PASI), and also the body weight of mice. Starting on day 7 and until day 13, 100 mg of test formulations […] and 65 mg of vehicle (groups 1 and […]) are topically administered once daily for 7 consecutive days onto the shaved back skin of mice. Several measurements are taken during treatment period from day 7 to day 14: psoriasis index (PASI), body weight, use of enrichment and mortality. At the end of treatment period, TEWL is assessed, and blood and skin samples are collected. Histological analysis of skin samples is used for microscopic scoring of psoriasis and the determination of the thickness of parakeratosis and epidermis and blood analysis is used for assessing the level of proinflammatory biomarkers (cytokines assays). The effect of treatment of psoriasis induced mice with BETi formulations at the four dose levels are compared with Dermoval® cream containing 0.05% clobetasol propionate (reference) and vehicle (positive control) and also with healthy mice treated with vehicle (negative control).
# The tolerance assessment to treatments with 0.01% and 1.0% BETi is performed daily during the treatment period (D7 to D13) as well as on the day mice are sacrifice (D14), and takes into account the following 5 parameters:
# The presence of erythema on the skin with the following scoring grid: • 0=no or no more erythema on the skin, • 1=weak erythema on the skin, • 2=moderate erythema on the skin, • 3=important erythema on the skin, • 4=severe erythema on the skin.
# The presence of induration of the skin with the following scoring grid: • 0=no or no more induration of the skin, • 1=weak induration of the skin, • 2=moderate induration of the skin, • 3=important induration of the skin, • 4=severe induration of the skin.
# The presence of ulceration of the skin with the following scoring grid: • 0=no or no more ulceration of the skin, • 1=weak ulceration of the skin, • 2=moderate ulceration of the skin, • 3=important ulceration of the skin, • 4=severe ulceration of the skin.
# The presence of necrosis of the skin with the following scoring grid: • 0=no or no more necrosis of the skin, • 1=weak necrosis of the skin, • 2=moderate necrosis of the skin, • 3=important necrosis of the skin, • 4=severe necrosis of the skin.
# The presence of peeling of the skin with the following scoring grid: • 0=no or no more peeling of the skin, • 1=weak peeling of the skin, • 2=moderate peeling of the skin, • 3=important peeling of the skin, • 4=severe peeling of the skin.
# The investigation addressed, amongst other things, the effect of the different BETi1 concentrations (0.001%, 0.01%, 0.1% and 1.0%) on various parameters. Tolerance was tested at two BETi1 concentrations (0.01% and 1%) in healthy mice.
# [3] = Solubility of BETi1 in water (HPLC) and in solvents (visual observation); format: physicochemical; settings: sample of 0.04 mg/g (0.004%) in NaCMC/saline
smiles,measurement,setting,value
Cn1cc(-c2cccc(O)c2Oc2ccccc2)c2cc[nH]c2c1=O [BETi1],melanin retained relative to unstimulated control,[1]; basal layers of RHE,approximately 75%
same,"residual melanin levels, % of stimulated/untreated control",[1]; basal layers of RHE,about 367%
same,melanin content in the basal layers,"[1]; stimulated RHE, vs vehicle",significantly increase the melanin content in the basal layers
same,"Body weight, individual mouse","[2]; Tolerance, healthy mice, D 1, listed as BETi1 1.0%",18.49
same,Mean body weights,"[2]; Tolerance, healthy mice, D 11, listed as BETi1 1.0%",18.97
same,"Body weight, individual mouse","[2]; Tolerance, healthy mice, D 14, listed as BETi1 1.0%",19.58
same,Modified PASI Mean score values,"[2]; mouse, in vivo",0.00
same,Modified PASI Mean score values,"[2]; mouse, in vivo, 1 study day",0.00
same,PASI Mean score values,"[2]; mouse, in vivo, 2 study day",0.00
same,PASI Mean score values,"[2]; mouse, in vivo, 3 study day",0.00
same,PASI Mean score values,"[2]; mouse, in vivo, 4 study day",0.00
same,PASI Mean score values,"[2]; mouse, in vivo, 5 study day",0.00
same,PASI Mean score values,"[2]; mouse, in vivo, 6 study day",0.00
same,PASI Mean score values,"[2]; mouse, in vivo, 7 study day",0.00
same,PASI Mean score values,"[2]; mouse, in vivo, 8 study day",0.00
same,Modified PASI Mean score values,"[2]; mouse, in vivo, 9 study day",0.00
same,PASI Mean score values,"[2]; mouse, in vivo, 9 study day",0.00
same,Modified PASI Mean score values,"[2]; mouse, in vivo, 10 study day",0.00
same,PASI Mean score values,"[2]; mouse, in vivo, 10 study day",0.00
same,Modified PASI Mean score values,"[2]; mouse, in vivo, 11 study day",0.00
same,PASI Mean score values,"[2]; mouse, in vivo, 11 study day",0.00
same,Modified PASI Mean score values,"[2]; mouse, in vivo, 12 study day",0.00
same,PASI Mean score values,"[2]; mouse, in vivo, 12 study day",0.00
same,Modified PASI Mean score values,"[2]; mouse, in vivo, 13 study day",0.00
same,PASI Mean score values,"[2]; mouse, in vivo, 13 study day",0.00
same,Modified PASI Mean score values,"[2]; mouse, in vivo, 14 study day",0.00
same,PASI Mean score values,"[2]; mouse, in vivo, 14 study day",0.00
same,local skin reaction to treatment,"[2]; mouse, in vivo",did not experience any noticeable local skin reaction
same,fraction of API in undissolved form,[3],approximately 90%
